Results taken from ChEMBL document CHEMBL3507680, “University of Dundee, Gates Library screen for HepG2 cell viability”.

assay: Human HepG2 cell viability assay in 384 well format; format: toxicity, cell-based; design: dose 125 nL, time 70.5 hour; cytotoxicity at 70.5 h: concentration not given beside the values; conditions: HepG2 cells, read-out: Inhibition

**Q.** Which cytotoxicity at 70.5 h does the source give for `CCN(c1ccc(C(=O)N2CCCCCC2)cc1)S(=O)(=O)CC` here?
**A.** Its cytotoxicity at 70.5 h is -2.32%.

**Q.** With `Cc1nc(CN)cc(NCc2ccccc2-n2cncn2)n1` as the compound, how does the cytotoxicity at 70.5 h read?
**A.** Its cytotoxicity at 70.5 h is 25%.

**Q.** Which cytotoxicity at 70.5 h does the source give for `Cn1cc(CN2CCCC23CCN(C(=O)c2cccn2C)CC3)cn1` here?
**A.** Its cytotoxicity at 70.5 h is -14.9%.

**Q.** With `O=C(O)c1ccc(CN2CCCC(Cc3ccn[nH]3)C2)cc1` (stereo not given) as the compound, how does the cytotoxicity at 70.5 h read?
**A.** The cytotoxicity at 70.5 h was -4.91%.

**Q.** For `COc1ccc(C(NC(=O)NCc2nnc3n2CCC3)C2CC2)cc1` (stereo not given), which cytotoxicity at 70.5 h is on record?
**A.** Its cytotoxicity at 70.5 h is 14.3%.

**Q.** With `O=C1CNc2ncnc(Nc3cnn(Cc4cccc(F)c4)c3)c2N1` as the compound, how does the cytotoxicity at 70.5 h read?
**A.** The cytotoxicity at 70.5 h was -16.6%.

**Q.** With `O=C(Cc1cccnc1)NC1COc2ccccc2C1=O` (stereo not given) as the compound, how does the cytotoxicity at 70.5 h read?
**A.** Its cytotoxicity at 70.5 h is -14.7%.

**Q.** Which cytotoxicity at 70.5 h does the source give for `COc1ccc2[nH]c(=O)c(CN(C)C(C)c3ccccn3)cc2c1` (stereo not given) here?
**A.** Its cytotoxicity at 70.5 h is -7.2%.

**Q.** Which cytotoxicity at 70.5 h does the source give for `CS(=O)(=O)CC1CCCN(C(=O)Cn2cccc(C(F)(F)F)c2=O)C1` (stereo not given) here?
**A.** The cytotoxicity at 70.5 h was 6.87%.

**Q.** Which cytotoxicity at 70.5 h does the source give for `COc1ccc(C(=O)N2C[C@@H](CN3CCCC3)[C@@H](CO)C2)c(C)c1` here?
**A.** Its cytotoxicity at 70.5 h is -8.12%.

**Q.** For `O=C(c1cc(-n2cnnn2)ccc1Cl)N1CCN(c2ccccc2)CC1`, which cytotoxicity at 70.5 h is on record?
**A.** The cytotoxicity at 70.5 h was -1.12%.

**Q.** Which cytotoxicity at 70.5 h does the source give for `N#CCCCS(=O)(=O)N1CCC(CSc2ccccc2)C1` (stereo not given) here?
**A.** The cytotoxicity at 70.5 h was -9.53%.

**Q.** Which cytotoxicity at 70.5 h does the source give for `CC1N(CC2CC2)C(=O)COC12CCN(C(=O)c1cscn1)CC2` (stereo not given) here?
**A.** The cytotoxicity at 70.5 h was -5.04%.

**Q.** With `COCCC(=O)NCC1Cn2nnc(-c3cccc(F)c3)c2CO1` (stereo not given) as the compound, how does the cytotoxicity at 70.5 h read?
**A.** Its cytotoxicity at 70.5 h is -0.67%.

**Q.** Which cytotoxicity at 70.5 h does the source give for `CCNC(=O)NC(c1ccc(C)cc1)c1cccc(S(C)(=O)=O)c1` (stereo not given) here?
**A.** Its cytotoxicity at 70.5 h is -11%.

**Q.** For `CC(C)S(=O)(=O)N1C[C@H]2OC(=O)N(CCc3cccc(Cl)c3)[C@H]2C1`, which cytotoxicity at 70.5 h is on record?
**A.** The cytotoxicity at 70.5 h was -4.98%.

**Q.** With `Cc1ccc(CC(=O)Nc2cc(C(C)C)n[nH]2)cn1` as the compound, how does the cytotoxicity at 70.5 h read?
**A.** Its cytotoxicity at 70.5 h is 24.6%.

**Q.** Which cytotoxicity at 70.5 h does the source give for `Clc1ccc2cccnc2c1CN1CCn2c(nnc2C2CC2)C1` here?
**A.** The cytotoxicity at 70.5 h was -13.3%.

**Q.** Which cytotoxicity at 70.5 h does the source give for `c1ccc(-n2cc(CNC3CCc4ncnn4C3)cn2)cc1` (stereo not given) here?
**A.** Its cytotoxicity at 70.5 h is -4.52%.

**Q.** With `Cc1cc(C(=O)N2CCc3nnc(N)cc3C2)c(C)n1-c1ccccc1` as the compound, how does the cytotoxicity at 70.5 h read?
**A.** Its cytotoxicity at 70.5 h is -1.62%.

**Q.** With `Fc1cccc(C2(CNC3CCCNC3)CCOCC2)c1` (stereo not given) as the compound, how does the cytotoxicity at 70.5 h read?
**A.** The cytotoxicity at 70.5 h was -1.46%.

**Q.** With `O=C(O)CCC(=O)N1CCN(CC2CC2)c2ncccc2C1` as the compound, how does the cytotoxicity at 70.5 h read?
**A.** The cytotoxicity at 70.5 h was 22.2%.

**Q.** With `N[C@@H]1CCN(Cc2cc(-c3ccccc3OC(F)(F)F)no2)C[C@H]1O` as the compound, how does the cytotoxicity at 70.5 h read?
**A.** The cytotoxicity at 70.5 h was -10.6%.

**Q.** Which cytotoxicity at 70.5 h does the source give for `CCN1CCCC(c2c(-c3ccccc3)ncn2CC(N)=O)C1` (stereo not given) here?
**A.** Its cytotoxicity at 70.5 h is -0.352%.

**Q.** For `Cc1nccc(C(=O)N2CCCC2c2c(C)nn(C)c2C)n1` (stereo not given), which cytotoxicity at 70.5 h is on record?
**A.** The cytotoxicity at 70.5 h was 16.2%.

**Q.** For `Cn1ccc(C(=O)NC2CCC23CCN(Cc2cccnc2)CC3)c1` (stereo not given), which cytotoxicity at 70.5 h is on record?
**A.** Its cytotoxicity at 70.5 h is -7.38%.

**Q.** Which cytotoxicity at 70.5 h does the source give for `C[S+]([O-])c1nncn1CC(=O)c1ccc2c(c1)CCC2` (stereo not given) here?
**A.** The cytotoxicity at 70.5 h was 8.46%.

**Q.** For `CC(C)N1CCN(S(=O)(=O)c2ncn(C)c2Cl)CC1`, which cytotoxicity at 70.5 h is on record?
**A.** The cytotoxicity at 70.5 h was -4.74%.

**Q.** With `CCNC(=O)c1ccc2c(c1)nc1n2CCN(Cc2ccco2)C1` as the compound, how does the cytotoxicity at 70.5 h read?
**A.** The cytotoxicity at 70.5 h was -16%.

**Q.** For `Clc1snnc1CN1CCOC(CNc2cccnn2)C1` (stereo not given), which cytotoxicity at 70.5 h is on record?
**A.** The cytotoxicity at 70.5 h was -21.7%.

**Q.** For `CC(C)N1CCC(C(=O)N(C)CC(=O)c2ccc(O)cc2)CC1`, which cytotoxicity at 70.5 h is on record?
**A.** Its cytotoxicity at 70.5 h is -17.5%.

**Q.** For `Cc1n[nH]c(C)c1C1CCCN1C(=O)c1coc(Br)c1` (stereo not given), which cytotoxicity at 70.5 h is on record?
**A.** The cytotoxicity at 70.5 h was -5.01%.

**Q.** For `O=C(Cc1cccs1)N1CCOCC1c1ccccc1` (stereo not given), which cytotoxicity at 70.5 h is on record?
**A.** Its cytotoxicity at 70.5 h is 15.2%.

**Q.** Which cytotoxicity at 70.5 h does the source give for `Cc1ncc(Cl)c(C(=O)N2CC(=O)N(C)c3ccccc32)n1` here?
**A.** The cytotoxicity at 70.5 h was -9.43%.

**Q.** For `CN(C)C(=O)C1OC2(CCN(C(=O)c3ccco3)CC2)c2ccccc21` (stereo not given), which cytotoxicity at 70.5 h is on record?
**A.** Its cytotoxicity at 70.5 h is -16.7%.

**Q.** For `CCC(CC)c1cc(C(=O)N2CCN(C(C)C(N)=O)CC2)on1` (stereo not given), which cytotoxicity at 70.5 h is on record?
**A.** The cytotoxicity at 70.5 h was -7.02%.

**Q.** For `CCOC(C)c1noc(CN2CCCNCC2)n1` (stereo not given), which cytotoxicity at 70.5 h is on record?
**A.** Its cytotoxicity at 70.5 h is -5.58%.

**Q.** With `O=C(CC1CC1)N[C@@H]1CN(Cc2ccccn2)C[C@@H]2CCCO[C@@H]21` as the compound, how does the cytotoxicity at 70.5 h read?
**A.** Its cytotoxicity at 70.5 h is -0.597%.

**Q.** Which cytotoxicity at 70.5 h does the source give for `COc1cc(I)c(Cl)cc1C(=O)N(C)C` here?
**A.** Its cytotoxicity at 70.5 h is -20.5%.

**Q.** With `Cc1nc(N2CCCC(N3CCCC3)C2)c2cnn(C)c2n1` (stereo not given) as the compound, how does the cytotoxicity at 70.5 h read?
**A.** Its cytotoxicity at 70.5 h is -5.42%.

**Q.** Which cytotoxicity at 70.5 h does the source give for `c1ccc(-c2nc(CCNCc3ccncc3)co2)cc1` here?
**A.** Its cytotoxicity at 70.5 h is -5.13%.

**Q.** For `CCc1nnc(CN(CC)C(=O)C2CC(=O)N(C3CCCC3)C2)o1` (stereo not given), which cytotoxicity at 70.5 h is on record?
**A.** Its cytotoxicity at 70.5 h is -10.6%.

**Q.** With `COc1cc2nc(C)n(CC(=O)NCCCO)c(=O)c2cc1OC` as the compound, how does the cytotoxicity at 70.5 h read?
**A.** Its cytotoxicity at 70.5 h is -10.5%.

**Q.** Which cytotoxicity at 70.5 h does the source give for `Cc1cs/c(=N\C(=O)c2c3c(nc4onc(C)c24)CCC3)[nH]1` here?
**A.** Its cytotoxicity at 70.5 h is -19.5%.

**Q.** With `Cc1noc(C2CCCN(Cn3cc(Br)cn3)C2)n1` (stereo not given) as the compound, how does the cytotoxicity at 70.5 h read?
**A.** The cytotoxicity at 70.5 h was -8.2%.
